The results in this text go back to patent US10324096B2, “Method of diagnosis, prognostic or treatment of neurodegenerative disease” (CENTRE NATIONAL DE LA RECHERCHE SCIENTIFIQUE, priority 2011, dated 2019).

Data set [1] has as its system zebrafish 3-OST-2 gene / abnormally phosphorylated Tau protein. The experiment in a line: Morpholino knock-down of 3-OST-2 in hTAU-P301L zebrafish: hyperphosphorylated Tau. It counts as in vivo. On the procedure: (§1) Morpholino oligonucleotides (MO) were designed to target the flanking region in the zebrafish 3-OST-2 gene in order to block the translation of the HS3ST2 mRNA: 5′-ATGGCATATAGGT TCCTGTCAAGCC . . . -3′. The morpholino antisense oligonucleotides were designed by Gene Tools (LLC One Summerton Way, Philomath, Oreg., USA). MO HS3ST2-ATG: 5′-[…]-3′.
The morpholinos were diluted to three different concentrations in Danieau buffer (58 mM NaCl, 0.7 mM KCl, 0.4 mM MgSO4, 0.6 mM Ca(NO3), 5 mM HEPES pH 7.6) and co-injected with 0.3 mg/mL dextran rhodamine (Molecular Probes, Eugene, Oreg., USA). Transgenic zebrafish embryos at one-cell or two-cell stage were microinjected with approximately 2 nL of 0.5 mM, or 1 mM morpholino solution using a pressure microinjector and a Zeiss stereomicroscope (Zeiss). […]
The embryos resulting from crossing between AB line and transgenic zebrafish carrying the P301L mutated Tau gene were screened for the DsRed fluorescent protein at 24 hpf and at 48 hpf the vitellus was removed. […] Protein concentration was measured according to the Bradford method.
Levels of P-Tau181, characteristic of taupathy associated pathologies, were measured using a combination of monoclonal antibody HT7 (which recognizes amino acids 159-163 in normal Tau and P-Tau) and biotinylated monoclonal antibody AT270 (which recognizes P-Tau containing the phosphorylated threonine 181 residue). […]

The test system of data set [2] is transgenic hTAU-P301L zebrafish embryos. Description: Morpholino injection in transgenic hTAU-P301L zebrafish embryos: survival, anomalies. As to conditions: morpholino 0.5 mM. It is filed as in vivo.
Excerpt: Transgenic hTAU-P301L embryos with morpholino-mediated knock-down of the 3-OST-2 coding gene with SEQ ID NO: 5 and the non-injected embryos were screened on the intensity of DsRed fluorescent protein at 24 hpf. With morpholino-mediated knock-down of the 3-OST-2 coding gene in the transgenic hTAU-P301L zebrafish model the level of hyperphosphorylation in Tau protein was investigated. First of all, the obtained zebrafish embryos from the crossing between WT line and transgenic zebrafish carrying the P301L mutation in Tau protein were injected with different morpholino concentrations, respectively 0.3 mM, 0.5 mM and 1 mM. The numbers of living embryos were assessed at 24 hours after injection and survival rates were determined. […] Thus, this concentration was chosen for further analyses (FIG. 12).
as §1
The morpholinos were diluted to three different concentrations in Danieau buffer (58 mM NaCl, 0.7 mM KCl, 0.4 mM MgSO4, 0.6 mM Ca(NO3), 5 mM HEPES pH 7.6) and co-injected with 0.3 mg/mL dextran rhodamine (Molecular Probes, Eugene, Oreg., USA). […]

In data set [3] the test system is abnormally phosphorylated Tau in wild type differentiated SH-SY5Y cells. The experiment in a line: Suppression of GAG sulfation by chlorate in differentiated SH-SY5Y cells, pTau western blot. It is filed as cell-based, human. As to conditions: FIG. 8A, chlorate 50 mM. The procedure: Two cell types were used, (i) a wild type SH-SY5Y cells (mutation-independent model) in where abnormal phosphorylation is induced by oxidative stress and (ii) cells stably transfected with complete human tau protein having the mutation hTAU-P301L (mutation dependent model), characteristic of FTDP-17. As a consequence of the Tau mutation cells present high levels of abnormal phosphorylated Tau.
For the mutation dependent model cells were cultured as previously described (Schaeffer V et al., J Neurobiol 2006, July; 66(8):868-881). For the mutation independent model, human SH-SY5Y neuroblastoma cells were propagated in Dulbeco's modiced Eagle's medium (Gibco) with 5% fetal bovine serum and penicillin/streptomycin (5% CO2 and 95% air). For both models cells were plated at a density of 10^6 cells/cm^2 on 25 cm^2 dish and incubated under standard conditions for 24 h. […]
After harvesting, cells were and incubated in an ice bath for 5 min in a lysis buffer (50 mM Trus-HCl, 150 mM NaCl, 1% Triton X-100, 1 mM EDTA, 10 mM NaF, pH 8.0) containing 1 mM Na3VO4, and 0.1% protease inhibitor cocktail (Sigam). Lysates were centrifuged and proteins in the supernatants were quantified using the BCA protein assay kit (Pierce). […] Abnormally phosphorylated tau was detected by using anti-tau-pSer199 and anti-tau-pSer396 (Millipore) as described above. […] Results were expressed as a ratio of target protein to actine. […]
(In general: Immunoblotting shows a protein as a band on a membrane.)

The target in a further data set is T1, human Tau protein (Homo sapiens, UniProt P10636).
T1 construct: purchased R&D systems
T1 sequence (P10636 1-441 isoform P10636-8): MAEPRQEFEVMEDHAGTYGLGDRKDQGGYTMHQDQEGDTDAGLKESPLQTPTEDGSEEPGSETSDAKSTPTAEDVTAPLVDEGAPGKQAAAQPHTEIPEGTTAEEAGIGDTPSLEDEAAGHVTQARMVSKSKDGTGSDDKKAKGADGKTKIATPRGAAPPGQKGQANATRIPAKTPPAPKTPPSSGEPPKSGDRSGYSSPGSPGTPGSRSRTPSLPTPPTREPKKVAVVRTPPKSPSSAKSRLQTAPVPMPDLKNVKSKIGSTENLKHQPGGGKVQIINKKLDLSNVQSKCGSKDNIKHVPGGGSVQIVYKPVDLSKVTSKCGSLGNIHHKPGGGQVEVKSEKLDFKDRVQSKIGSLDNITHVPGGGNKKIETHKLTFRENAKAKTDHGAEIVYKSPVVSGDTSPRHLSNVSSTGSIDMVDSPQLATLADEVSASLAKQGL
The experiment in a line: Heparin/glycosaminoglycans ELISA competition assay towards human Tau protein (immobilized heparin). It counts as binding. The note with it: FIG. 20. On the procedure:
FIGS. 6A and 6B presents the higher capacity of GAGs extracted from hippocampus of AD to bind to human tau protein compared to GAGs from age-matched normal control brains. An ELISA test was used to compare the capacity of the different GAGs to bind to tau protein. The ELISA competing assay used immobilized heparin to bind au in the absence of competing GAGs. For the assay, GAGs (used from 0.1 to 1000 ng/mL) were added to the ELISA together with the tau protein (used at 100 ng/mL). After 1 h incubation at 4° C. plates were washed and remaining tau signal was recorded in the plate. X-axis: % Tau protein binding to total sulfated GAGs. EC50 stands for the GAG concentration necessary to inhibit 50% of the tau protein binding to immobilized heparin. Y-axis: Control (white histogram), AD (black histogram).
AD and control hippocampus extracted GAGs binding to human Tau protein (R&D systems) was evaluated by an ELISA based competition binding essay (Najjam et al., 1997). ELISA type 96 wells plates were coated with a 2 μg/mL BSA-heparin conjugate solution prepared as previously described (Najjam et al., 1997). After washing with PBS/0.05% Tween-20 (washing solution), wells were saturated with 3% BSA in PBS. […] Peroxidase activity was measured by the tetramethylbenzidine (TMB) detection kit (Pierce). […]
A general note: In an ELISA, binding on a coated surface is turned into a signal by an enzyme label.

Data set [4] concerns the target T2, recombinant human tau protein (441-amino acid isoform), GSK-3 (Homo sapiens, UniProt P10636).
T2 construct: purchased Millipore
Description: Phosphorylation of recombinant human Tau by GSK-3 in the presence of GAGs, heparin or oligosaccharides. It is filed as biochemical. The note with it: 3-O-sulfated groups in heparin. The procedure:
Phosphorylation by glycogen synthase kinase 3 (GSK-3). Recombinant hTau41 (Millipore) was incubated for 0 to 24 h with […] of recombinant GSK3 (Millipore) in the presence or absence of 50 mg/ml of heparin, Arixtra®, or the heparin hexasaccharide non 3-O-sulfated. Phosphorylation assays (0.050 ml) were carried out at 30° C. and comprised 25 mM Tris-HCl, pH 7.4, 0.1 mM EGTA, 0.1 mM sodium orthovanadate, 2.5 mM PKI (a specific inhibitor of cyclic AMP-dependent protein kinase), protease inhibitors (0.5 mM phenylmethylsulfonyl fluoride, 5 mg/ml aprotinin, 5 mg/ml leupeptin,
and 0.5 mg/ml pepstatin), tau protein ([…]), 10 mM magnesium acetate, 2 mM [g-^32P]ATP (approximately 100 cpm/nmol) 5 units/ml recombinant reconstituted GSK3. Reactions were initiated with ATP and aliquots were removed at various times ranging from 10 min to 24 h and used for SDS-polyacrylamide gel electrophoresis and immunoblotting. Immunoblots were performed as described (Masato Hasegawa et al., J Bio Chem. (1997) 272 (52), pp. 33118-33124). Alternatively, incorporation of ^32P radioactivity was measured after adsorption to Whatman P-81 paper, as described. Heparin and extracted GAGs were included in the assays at 50 mg/ml.

T2 sequence (P10636 1-441 isoform P10636-8): as above

With “5′-GGCTTGACAGGAACCTATATGCCAT-3′ (all phosphorodiamidate morpholino (PMO)) [MO HS3ST2-ATG]”, the “accumulation of abnormally phosphorylated Tau protein in spinal cord” value in data set [1] (FIG. 13, anti-PHF-tau antibody clone AT8) is “diminishes the accumulation of abnormally phosphorylated Tau protein in spinal cord”. The “accumulation of abnormal Tau hyperphosphorylation in vivo” value in data set [1] (decreasing expression of 3-OST-2 by morpholino) was “accumulation of abnormal Tau hyperphosphorylation was markedly decreased”. Moreover, the “major anomalies or deformities” value in data set [2] is “did not give major anomalies or deformities”. In data set [2] (24 hours post-injection), this molecule had a survival rate of 67%. `[O-][Cl+2]([O-])O` [chlorate, sodium chlorate]: the “levels of abnormally phosphorylated Tau epitopes S199, T231, S262, S396 (pTau/β actine)” value in data set [3] was “Decreased levels of the abnormally phosphorylated Tau epitopes”. fucoidan: at human Tau protein, the “competition with heparin for binding to human Tau protein (percentage of binding of test compound to hTau)” value is on record as “able to compete with heparin for the binding to human Tau protein”. Consider heparin, for which, in data set [4], the “induction of abnormal Tau phosphorylation in vitro” value was “able to induce abnormal Tau phosphorylation in vitro”.
